IC50 data for eight compounds are collected here from patent US11179391B2, “Compound with kinase inhibitory activity and preparation method and use thereof” (priority 2017, dated 2021).

The term IC50 denotes the concentration that gives 50% inhibition.

What all share (assay type): biochemical
The target in one assay is CDK1/CyclinB (Homo sapiens, UniProt P06493). The experiment in a line: Determination of CDK activity (Caliper mobility shift, FAM-P8 peptide): CDK1. The conditions noted are these: CDK1/CyclinB; read-out: CDK1 enzymatic inhibitory activity (IC50). Here is the method: (§1) In vitro, CDK (CDK4, CDK6, CDK1, CDK2, CDK7, and CDK9) kinase activity was tested by the following method.
CDK1/CyclinB, sequence (P06493 whole entry): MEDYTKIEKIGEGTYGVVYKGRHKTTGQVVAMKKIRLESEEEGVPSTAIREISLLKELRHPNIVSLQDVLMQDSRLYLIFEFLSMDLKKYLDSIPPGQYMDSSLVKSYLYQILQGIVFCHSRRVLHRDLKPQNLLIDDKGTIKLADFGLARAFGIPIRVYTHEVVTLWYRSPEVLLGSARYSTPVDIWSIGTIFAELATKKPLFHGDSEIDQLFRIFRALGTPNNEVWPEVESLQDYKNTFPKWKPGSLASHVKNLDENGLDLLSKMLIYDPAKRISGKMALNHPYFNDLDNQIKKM
CDK1/CyclinB, sequence (P14635 whole entry partner): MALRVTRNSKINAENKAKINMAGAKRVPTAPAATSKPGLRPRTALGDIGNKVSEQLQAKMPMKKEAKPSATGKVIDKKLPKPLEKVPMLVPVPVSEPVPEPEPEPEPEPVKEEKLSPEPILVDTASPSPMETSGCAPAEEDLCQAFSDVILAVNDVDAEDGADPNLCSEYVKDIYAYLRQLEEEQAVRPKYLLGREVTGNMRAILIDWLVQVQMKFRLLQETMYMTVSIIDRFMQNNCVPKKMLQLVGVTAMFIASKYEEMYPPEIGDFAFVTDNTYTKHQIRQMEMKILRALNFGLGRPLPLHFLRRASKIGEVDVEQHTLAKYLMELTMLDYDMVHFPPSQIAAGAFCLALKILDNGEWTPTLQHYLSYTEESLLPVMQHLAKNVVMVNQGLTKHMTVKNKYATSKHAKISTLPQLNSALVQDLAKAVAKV
(§2) 1. Prepared 1× Kinase Buffer and Stop Buffer for the Test
(§3) 1) 1× Kinase Base Buffer (CDK1, 2, and 6).
(§4) 1) Diluted the compound to 50 times of the maximum concentration with 100% DMSO. For example, if the desired maximum inhibitory concentration is 10 μM, then a DMSO solution of 500 μM concentration is required.
(§5) 2) Transferred the compound to a 96-well plate and serially diluted the compound from a 100% DMSO solution at a ratio of 30 μm to 60 μm for a total of 10 concentrations gradients. 3) Transferred 100 μm of 100% DMSO to two empty wells as a no compound control and a no enzyme control.
(§6) 1) Transferred 5 μm of each compound from the 96-well intermediate plate to a 384-well plate. […] A2 of the 96-well plate was transferred to A3 and A4 of the 384-well plate, and so on.
(§7) 1) Prepared a 2.5× enzyme solution: added kinase into 1× kinase base buffer.
(§8) 2) Prepared a 2.5× peptide solution: added FAM-labeled peptide and ATP into the 1× kinase base buffer.
(§9) 3) Transferred the 2.5× enzyme solution to the assay plate: Assay plate already contained 5 μm of 10% DMSO and transferred 10 μm of 2.5× enzyme solution to each well.
(§10) 4) Incubated at room temperature for 10 min.
(§11) 5) Transferred the 2.5× peptide solution to the assay plate: added 10 μm of 2.5× peptide solution to each well of the 384-well assay plate.
(§12) 6) Kinase reaction and termination: incubated at 28° C. for a specified period and added 25 μm of stop buffer to stop the reaction.
(§13) 5. Caliper Reading: Collect Data on Caliper.
(§14) 1) Copied conversion data from Caliper program and Converted conversion values to inhibition values: Inhibition rate (%)=(1−OD value of the compound-OD value of the control well)/(OD value of the control empty-OD value of the control well)*100%.
(§15) 2) Fitted the data in XLFit excel add-in version 4.3.1 to give the corresponding IC50 values.

The next assay deals with CDK4/CycD3 (Homo sapiens, UniProt P11802). Put plainly: Determination of CDK activity (Caliper mobility shift, FAM-P8 peptide): CDK4. The conditions noted are these: CDK4/CycD3; read-out: CDK4 enzymatic inhibitory activity (IC50). Here is the method:
as §1
(§16) CDK and raw materials used here: CDK4/CycD3 (Carna, Cat. No 04-105, Lot. No 10CBS-0429 C, GST-CDK4(1-303end)/GST-CycD3(1-292end)); CDK6/cycD3 (Carna, Cat. No 04-107, Lot. No 09CBS-0622K, GST-CDK6(1-326(end))); CDK1/CyclinB (Millipore, Cat. 14-450k, Lot. No 25729U, His-CDK1+GST-cyclinB); CDK2/CycA2 (Carna, Cat. No 04-103, Lot. No 06CBS-3024, GST-CDK2 (1-298(end))); CDK7/CyclinH/MAT1 (Millipore, Cat. No 14-476M, Lot. No WAB0365-A, His-CDK7+GST-MAT1+cyclinH); CDK9/cyclinTl (Millipore, Cat. No 14-685K, Lot. No. 2476163-A, His-CDK9+cyclinTl); Peptide FAM-P8 (GL Biochem, Cat. No. 112396, Lot. No. P100804-XZ112396); ATP (Sigma, Cat. No. A7699-1G, CAS No. 987-65-5); DMSO (Sigma, Cat. No. D2650, Lot. No. 474382); EDTA (Sigma, Cat. No. E5134, CAS No. 60-00-4); 96-well plate (Corning, Cat. No. 3365, Lot. No. 22008026); 384-well plate (Corning, Cat. No. 3573, Lot. No. 12608008); Staurosporine (Sigma, Cat. No. S4400-1MG, Lot. No. 046K4080).
as §2
2) 1× Kinase Base Buffer (CDK4).
as §4, §5
(§17) 4) Prepared intermediate plate and transferred the compound of 10 μm concentration from the original plate to the intermediate plate, and then 90 μm of 1× kinase buffer was added and mixed by shaking for 10 min.
(§18) 4) Preparing intermediate plate and transferred the compound of […] concentration from the original plate to the intermediate plate, and then 90 μm of 1× kinase buffer was added and mixed by shaking for 10 min.
(§19) 1) Transferred 5 μm of each compound from the 96-well intermediate plate to a 384-well plate. For example, A1 of the 96-well plate was transferred to A1 and A2 of the 384-well plate. A2 of the 96-well plate was transferred to A3 and A4 of the 384-well plate, and so on.
as §7, §8, §9, §10, §11, §12, §13, §14, §15

For a further assay, the target named is CDK2/CycA2 (Homo sapiens, UniProt P24941). The experiment in a line: Determination of CDK activity (Caliper mobility shift, FAM-P8 peptide): CDK2. The conditions noted are these: CDK2/CycA2; read-out: CDK2 enzymatic inhibitory activity (IC50). Here is the method: as §1, §2, §3, §4, §5, §6, §7, §8, §9, §10, §11, §12, §13, §14, §15
For a further assay, the target named is CDK9/cyclinTl (Homo sapiens, UniProt P50750). Put plainly: Determination of CDK activity (Caliper mobility shift, FAM-P8 peptide): CDK9. The conditions noted are these: CDK9/cyclinTl; read-out: CDK9 enzymatic inhibitory activity (IC50). The method, then:
as §1, §2
(§20) 3) 1× Kinase Base Buffer (CDK7 and 9).
as §4, §5, §6, §7, §8, §9, §10, §11, §12, §13, §14, §15

In the next assay the target is CDK6/cycD3 (Homo sapiens, UniProt Q00534). Put plainly: Determination of CDK activity (Caliper mobility shift, FAM-P8 peptide): CDK6. The conditions noted are these: CDK6/cycD3; read-out: CDK6 enzymatic inhibitory activity (IC50). The method, then: as §1, §16, §2, §3, §4, §5, §17, §18, §19, §7, §8, §9, §10, §11, §12, §13, §14, §15
CDK6/cycD3, sequence (Q00534 whole entry): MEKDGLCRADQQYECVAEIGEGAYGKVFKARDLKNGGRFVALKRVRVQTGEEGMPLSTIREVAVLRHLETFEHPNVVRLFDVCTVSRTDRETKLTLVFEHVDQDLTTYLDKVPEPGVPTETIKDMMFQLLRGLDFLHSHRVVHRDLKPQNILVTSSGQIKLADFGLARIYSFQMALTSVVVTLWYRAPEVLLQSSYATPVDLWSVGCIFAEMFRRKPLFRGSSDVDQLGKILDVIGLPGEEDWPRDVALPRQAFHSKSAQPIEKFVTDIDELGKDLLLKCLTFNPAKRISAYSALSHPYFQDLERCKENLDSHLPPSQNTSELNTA
CDK6/cycD3, sequence (P30281 whole entry partner): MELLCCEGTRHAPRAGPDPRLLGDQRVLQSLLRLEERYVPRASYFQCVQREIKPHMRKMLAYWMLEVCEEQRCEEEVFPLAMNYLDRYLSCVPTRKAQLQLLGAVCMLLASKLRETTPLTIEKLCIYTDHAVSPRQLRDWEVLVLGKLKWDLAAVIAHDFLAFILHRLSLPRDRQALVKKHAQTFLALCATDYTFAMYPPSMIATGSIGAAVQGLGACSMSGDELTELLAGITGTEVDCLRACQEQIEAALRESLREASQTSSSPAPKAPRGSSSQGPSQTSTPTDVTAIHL
The next assay deals with CDK7/CyclinH/MAT1 (Homo sapiens, UniProt P50613). The experiment in a line: Determination of CDK activity (Caliper mobility shift, FAM-P8 peptide): CDK7. The conditions noted are these: CDK7/CyclinH/MAT1; read-out: CDK7 enzymatic inhibitory activity (IC50). The method, then:
as §1, §16, §2, §20, §4, §5, §17, §18, §19, §7, §8, §9, §10, §11, §12, §13, §14, §15

CDK4/CycD3, sequence (P11802 whole entry): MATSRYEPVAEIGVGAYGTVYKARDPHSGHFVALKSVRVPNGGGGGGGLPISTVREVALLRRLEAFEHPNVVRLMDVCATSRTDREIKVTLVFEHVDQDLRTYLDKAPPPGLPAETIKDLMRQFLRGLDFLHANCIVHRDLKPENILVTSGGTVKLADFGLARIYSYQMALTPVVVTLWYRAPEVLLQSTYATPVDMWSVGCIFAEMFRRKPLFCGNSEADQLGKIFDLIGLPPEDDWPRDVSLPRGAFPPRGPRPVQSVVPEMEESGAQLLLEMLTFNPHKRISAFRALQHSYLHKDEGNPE
CDK4/CycD3, sequence (P30281 whole entry partner): as the sequence (P30281 whole entry partner) above
CDK7/CyclinH/MAT1, sequence (P50613 whole entry): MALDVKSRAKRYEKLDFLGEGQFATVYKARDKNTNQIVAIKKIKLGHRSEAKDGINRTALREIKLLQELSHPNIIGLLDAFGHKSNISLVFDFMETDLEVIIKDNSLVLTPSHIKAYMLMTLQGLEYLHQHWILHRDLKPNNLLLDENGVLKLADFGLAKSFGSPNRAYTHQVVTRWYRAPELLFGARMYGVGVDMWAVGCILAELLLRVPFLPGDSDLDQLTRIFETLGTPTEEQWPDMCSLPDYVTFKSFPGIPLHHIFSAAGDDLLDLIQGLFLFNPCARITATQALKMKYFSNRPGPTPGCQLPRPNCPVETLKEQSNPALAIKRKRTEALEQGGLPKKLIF
CDK7/CyclinH/MAT1, sequence (P51946 whole entry partner): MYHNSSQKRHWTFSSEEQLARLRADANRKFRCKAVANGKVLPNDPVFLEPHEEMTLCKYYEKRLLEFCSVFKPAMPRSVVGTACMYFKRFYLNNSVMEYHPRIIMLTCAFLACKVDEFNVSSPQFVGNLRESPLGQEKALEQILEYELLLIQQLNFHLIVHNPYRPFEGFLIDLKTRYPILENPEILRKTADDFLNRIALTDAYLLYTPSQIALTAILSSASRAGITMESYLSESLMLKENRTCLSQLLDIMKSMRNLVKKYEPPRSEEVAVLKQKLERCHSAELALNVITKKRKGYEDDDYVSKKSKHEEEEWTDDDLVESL
CDK7/CyclinH/MAT1, sequence (P51948 whole entry partner): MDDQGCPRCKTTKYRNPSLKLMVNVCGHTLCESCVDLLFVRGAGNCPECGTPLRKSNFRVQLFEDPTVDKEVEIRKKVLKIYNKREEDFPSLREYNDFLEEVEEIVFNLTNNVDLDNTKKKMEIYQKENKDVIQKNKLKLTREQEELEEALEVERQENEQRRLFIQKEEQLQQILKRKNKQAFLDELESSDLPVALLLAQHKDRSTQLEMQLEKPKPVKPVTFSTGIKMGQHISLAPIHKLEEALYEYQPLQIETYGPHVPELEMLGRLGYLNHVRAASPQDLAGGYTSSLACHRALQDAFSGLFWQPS
CDK9/cyclinTl, sequence (P50750 whole entry): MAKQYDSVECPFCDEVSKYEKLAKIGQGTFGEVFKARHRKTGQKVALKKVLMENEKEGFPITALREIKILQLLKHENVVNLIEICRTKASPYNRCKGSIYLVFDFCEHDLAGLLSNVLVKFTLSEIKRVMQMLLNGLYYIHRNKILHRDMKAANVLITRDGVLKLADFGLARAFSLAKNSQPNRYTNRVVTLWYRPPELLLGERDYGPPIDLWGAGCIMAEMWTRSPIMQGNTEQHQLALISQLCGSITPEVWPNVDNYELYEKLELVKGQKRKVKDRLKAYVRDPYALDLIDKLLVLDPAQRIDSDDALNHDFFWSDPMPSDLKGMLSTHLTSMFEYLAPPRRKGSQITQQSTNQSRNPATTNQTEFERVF
CDK9/cyclinTl, sequence (O60563 whole entry partner): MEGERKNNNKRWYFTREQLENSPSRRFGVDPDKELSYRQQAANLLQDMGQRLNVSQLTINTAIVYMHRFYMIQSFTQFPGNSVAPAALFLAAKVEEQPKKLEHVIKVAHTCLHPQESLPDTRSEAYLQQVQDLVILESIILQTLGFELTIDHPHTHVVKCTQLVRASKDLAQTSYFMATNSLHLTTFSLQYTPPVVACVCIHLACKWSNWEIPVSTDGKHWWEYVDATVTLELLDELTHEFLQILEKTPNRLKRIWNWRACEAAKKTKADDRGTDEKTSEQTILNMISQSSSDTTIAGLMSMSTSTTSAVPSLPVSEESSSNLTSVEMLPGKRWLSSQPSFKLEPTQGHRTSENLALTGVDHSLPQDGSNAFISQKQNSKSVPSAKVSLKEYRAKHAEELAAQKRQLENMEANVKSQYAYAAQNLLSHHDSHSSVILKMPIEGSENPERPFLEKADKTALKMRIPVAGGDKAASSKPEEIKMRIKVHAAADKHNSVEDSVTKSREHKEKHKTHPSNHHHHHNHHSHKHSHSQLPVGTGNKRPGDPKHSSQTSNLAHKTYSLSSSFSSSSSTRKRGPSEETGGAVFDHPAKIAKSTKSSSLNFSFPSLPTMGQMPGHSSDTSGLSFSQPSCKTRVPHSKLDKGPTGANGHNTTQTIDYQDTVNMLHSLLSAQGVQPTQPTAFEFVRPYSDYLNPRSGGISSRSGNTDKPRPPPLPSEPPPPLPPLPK

Take `C=C(c1ccc(Nc2ncc(F)c(-c3cc(F)c4nc(C)n(C(C)C)c4c3)n2)nc1)C1CCNCC1` [Example 34]: the IC50 lay within 500 to 1000 nM at CDK1/CyclinB; 100 to 500 nM at CDK4/CycD3; 100 to 500 nM at CDK2/CycA2; 100 to 500 nM on CDK9/cyclinTl; 100 to 500 nM at CDK6/cycD3; 1000 to 10000 nM at CDK7/CyclinH/MAT1.
Turning to `Cc1nc2c(F)cc(-c3nc(Nc4ccc(C=C5CCNCC5)cn4)ncc3F)cc2n1C(C)C` [Example 59], the half-inhibitory concentration (IC50) is 500 to 1000 nM on CDK1/CyclinB; less than 100 nM on CDK4/CycD3; 100 to 500 nM on CDK2/CycA2; 100 to 500 nM on CDK9/cyclinTl; 500 to 1000 nM at CDK6/cycD3; 1000 to 10000 nM on CDK7/CyclinH/MAT1.
Turning to `CCC(c1ccc(Nc2ncc(F)c(-c3cc(F)c4nc(C)n(C(C)C)c4c3)n2)nc1)N1CCN(CC)CC1` (racemic) [Example 1, N-(5-(1-(4-ethylpiperazin-1-yl)propyl)pyridin-2-yl)-5-fluoro-4-(4-fluoro-1-isopropyl-2-methyl-1H-benzo[d]imidazol-6-yl)pyrimidin-2-amine], the IC50 is 10000 to 100000 nM at CDK1/CyclinB; less than 100 nM at CDK4/CycD3; 1000 to 10000 nM at CDK2/CycA2; 1000 to 10000 nM on CDK9/cyclinTl; 1000 to 10000 nM on CDK6/cycD3; 1000 to 10000 nM at CDK7/CyclinH/MAT1.
With `Cc1nc2c(F)cc(-c3nc(Nc4ccc([C@@H](C)C5CCN(C(C)C)CC5)cn4)ncc3F)cc2n1C(C)C` (single isomer, unassigned) [Example 74], the IC50 was 500 to 1000 nM at CDK1/CyclinB; less than 100 nM on CDK4/CycD3; 100 to 500 nM at CDK2/CycA2; 100 to 500 nM on CDK9/cyclinTl; 100 to 500 nM at CDK6/cycD3; 1000 to 10000 nM on CDK7/CyclinH/MAT1.
As for `Cc1nc2c(F)cc(-c3nc(Nc4ccc([C@@H](C)C5CCN(C)CC5)cn4)ncc3F)cc2n1C(C)C` (single isomer, unassigned) [Example 22], the IC50 on CDK1/CyclinB was 500 to 1000 nM; on CDK4/CycD3, less than 100 nM; on CDK2/CycA2, 100 to 500 nM; at CDK9/cyclinTl, 500 to 1000 nM; on CDK6/cycD3 it was 100 to 500 nM; on CDK7/CyclinH/MAT1, 1000 to 10000 nM.
As for `C=C(c1ccc(Nc2ncc(F)c(-c3cc(F)c4nc(C)n(C(C)C)c4c3)n2)nc1)C1CCN(C)CC1` [Example 35], the IC50 on CDK1/CyclinB was 100 to 500 nM; at CDK4/CycD3, less than 100 nM; on CDK2/CycA2, less than 100 nM; at CDK9/cyclinTl it was less than 100 nM; on CDK6/cycD3 it was 100 to 500 nM; at CDK7/CyclinH/MAT1 it was 1000 to 10000 nM.
Regarding `Cc1nc2c(F)cc(-c3nc(Nc4ccc([C@H](C)C5CCN(C(C)C)CC5)cn4)ncc3F)cc2n1C(C)C` (single isomer, unassigned) [Example 73], the IC50 was 100 to 500 nM at CDK1/CyclinB; less than 100 nM at CDK4/CycD3; less than 100 nM on CDK2/CycA2; 500 to 1000 nM on CDK9/cyclinTl; less than 100 nM at CDK6/cycD3; 1000 to 10000 nM on CDK7/CyclinH/MAT1.
On to `COCCN1CCC(=Cc2ccc(Nc3ncc(F)c(-c4cc(F)c5nc(C)n(C(C)C)c5c4)n3)nc2)CC1` [Example 68], for which the IC50 is 100 to 500 nM at CDK1/CyclinB; less than 100 nM on CDK4/CycD3; less than 100 nM at CDK2/CycA2; 100 to 500 nM on CDK9/cyclinTl; less than 100 nM at CDK6/cycD3; 1000 to 10000 nM at CDK7/CyclinH/MAT1.
